This passage reports IC50 results from patent US12234245B2, “Sulfonimidamide compounds as inhibitors of interleukin-1 activity” (Genentech, Inc., priority 2018, dated 2025).

The structures appear in SMILES notation. pIC50: −log10 of the molar value.

As a reminder, the pIC50 is the negative decadic logarithm of the IC50, by convention in mol/L.

Sequence of NLRP3 inflammasome (Q96P20 whole entry, the tested form may be a part): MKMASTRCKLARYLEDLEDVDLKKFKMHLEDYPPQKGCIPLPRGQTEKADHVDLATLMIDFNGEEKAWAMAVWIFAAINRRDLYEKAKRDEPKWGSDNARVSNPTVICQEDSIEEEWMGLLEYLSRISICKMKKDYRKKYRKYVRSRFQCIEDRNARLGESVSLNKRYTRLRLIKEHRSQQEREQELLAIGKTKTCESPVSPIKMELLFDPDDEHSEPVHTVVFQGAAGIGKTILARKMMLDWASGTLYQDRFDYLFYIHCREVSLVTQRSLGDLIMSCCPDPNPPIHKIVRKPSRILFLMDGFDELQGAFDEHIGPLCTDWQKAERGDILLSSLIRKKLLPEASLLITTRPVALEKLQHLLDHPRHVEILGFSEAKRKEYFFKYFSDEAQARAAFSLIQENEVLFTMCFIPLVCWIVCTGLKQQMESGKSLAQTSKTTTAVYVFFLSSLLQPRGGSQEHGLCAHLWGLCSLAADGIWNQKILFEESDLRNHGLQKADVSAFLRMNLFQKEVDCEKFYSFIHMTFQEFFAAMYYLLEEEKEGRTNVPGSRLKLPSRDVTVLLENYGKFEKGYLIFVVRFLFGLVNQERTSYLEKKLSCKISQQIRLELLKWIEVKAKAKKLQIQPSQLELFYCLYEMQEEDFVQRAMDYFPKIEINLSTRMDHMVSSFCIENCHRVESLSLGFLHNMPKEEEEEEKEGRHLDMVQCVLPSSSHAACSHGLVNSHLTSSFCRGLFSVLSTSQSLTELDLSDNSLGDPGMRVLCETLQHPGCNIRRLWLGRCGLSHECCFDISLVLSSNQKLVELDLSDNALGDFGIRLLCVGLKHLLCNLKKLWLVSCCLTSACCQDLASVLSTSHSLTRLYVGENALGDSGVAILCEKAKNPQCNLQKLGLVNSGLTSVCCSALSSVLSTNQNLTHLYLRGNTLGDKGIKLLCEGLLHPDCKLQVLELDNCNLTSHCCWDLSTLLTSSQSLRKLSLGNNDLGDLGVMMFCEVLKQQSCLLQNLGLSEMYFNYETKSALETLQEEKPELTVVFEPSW

For this assay, the target named is NLRP3 inflammasome (Homo sapiens, UniProt Q96P20). The experiment in a line: THP-1 ASC-GFP speck assay. The class given is cell-based. Set-up: host or cells: THP-1 ASC-GFP cells, PMA-differentiated, LPS-primed, nigericin-stimulated. As to conditions: THP-1 ASC-GFP cells, PMA differentiated, LPS primed, 10 μM nigericin; read-out: THP1 ASC Speck IC50. On the procedure:
THP-1 ASC-GFP cell line was purchased from Invivogen, San Diego, for inflammasome activation assay. THP-1 ASC-GFP cells stably express a 37.6 kDa ASC::GFP fusion protein that enables monitoring of spec formation by microscopy after activation of NLRP3 dependent inflammasome pathway. Cells were maintained at a density of 600,000 cells/mL in growth media consisting of RPMI 1640, 2 mM L-glutamine, 25 mM HEPES and 10% heat inactivated fetal bovine serum at 37° C. and 5% CO2. Cells were passaged every 3-4 days and used for assays for up to 20 passages.
THP-1 ASC-GFP cells were collected by centrifuging cells at 800 RPM for 5 minutes. Cell culture supernatant was removed and cells were re-suspended in fresh media at density of 1×10^6 cells/mL in assay media consisting of RPMI 1640, 2 mM L-glutamine, 25 mM HEPES and 10% heat inactivated fetal bovine serum. Phorbol 12-myristate 13-acetate (PMA) (Invivogen, tlrl-pma) was added to the cell suspension at a final concentration of 500 ng/ml and mixed thoroughly. 40,000 cells were added per well of a 384 well plate and differentiated into macrophages overnight at 37° C. and 5% CO2. Cells were primed with 1 μg/mL of lipopolysaccharide (Invivogen Ultrapure lipopolysaccharide from E. coli, tlrl-3pelps) in assay media for 3 hours at 37° C. and 5% CO2. After priming, media was removed and THP-1 ASC-GFP cells were preincubated with serially diluted test compounds with starting concentration of 40 μM followed by 2-fold dilution for a 20-point curve or vehicle (DMSO) for 30 min in assay media at 37° C. and 5% CO2. Cells were then stimulated with 10 μM nigericin (Invivogen, tlrl-nig-5) for 90 min at 37° C. and 5% CO2 to activate NLRP3 dependent inflammasome pathway and spec formation. After stimulation, cells were fixed with 4.8% paraformaldehyde (Electron Microscopy Sciences #15710-S) and incubated at room temperature for 15 min. Cells were then washed 3-times with 100 μL of phosphate buffered saline and permeabilized in the presence of premeablization/block buffer for 20 min at room temperature. Cells were then washed 3-times with 100 μL phosphate buffered saline and incubated for 1 hr at room temperature in the presence of hoechst. After staining with Hoechst, cells were washed 3-times with 100 μL phosphate buffered saline and imaged for ASC spec formation.
THP-1 ASC-GFP cells were imaged in 488 and Hoechst channels. Hoechst channel was used for cell count and 488 channel was used to identify number of GFP ASC specks in imaged fields. Percentage of cells with a spec was calculated by dividing the number of GFP positive spots by total number of cells.
For the molecule `COC1COc2c(S(N)(=O)=NC(=O)Nc3c4c(cc5c3C(C)CC5)CCC4)cnn2C1` (single isomer, unassigned) [Example 147], the pIC50 was less than 4.70.

As for `CC1CCc2cc3c(c(NC(=O)N=S(N)(=O)c4cnn5c4OCC5)c21)CCC3` (single isomer, unassigned) [Example 146], the pIC50 was 5.59.

For the molecule `CC1(C)COc2c(S(N)(=O)=NC(=O)Nc3c4c(cc5c3CC(F)C5)CCC4)cnn2C1` (single isomer, unassigned) [Example 153], the pIC50 was 5.85.

With `COc1cc(C(C)C)c(NC(=O)N=S(N)(=O)c2cnn3c2OCC(C)(C)C3)c(C(C)C)n1` (single isomer, unassigned) [Example 77], the pIC50 is less than 4.70.

`COC1CCOc2c(S(N)(=O)=NC(=O)Nc3c4c(cc5c3CCC5)CCC4)cnn2C1` (single isomer, unassigned) [Example 91]: the pIC50 was 6.31.

On to `CC1CCc2cc3c(c(NC(=O)N=S(N)(=O)c4cnn5c4OCC(C)(C)C5)c21)CCC3` (single isomer, unassigned) [Example 135], for which the pIC50 is less than 4.70.

Consider `CC1CCc2cc3c(c(NC(=O)N=S(N)(=O)c4cnn5c4OCC5)c21)CCC3` (single isomer, unassigned) [Example 144], for which the pIC50 is 7.25.

Take `CC(C)c1nn(CC(F)F)c(C(C)C)c1NC(=O)N=S(N)(=O)c1cnn2c1OCCC2` (single isomer, unassigned) [Example 96]: the pIC50 is less than 4.70.

Consider `CC1CCc2cc3c(c(NC(=O)N=S(N)(=O)c4cnn5c4OCC5)c21)CCC3` (single isomer, unassigned) [Example 145], for which the pIC50 was 5.42.

For `COc1cc(-c2ccc3c(c2NC(=O)N=S(N)(=O)c2cnn4c2OCCC4)CCO3)ccn1` (single isomer, unassigned) [Example 157], the pIC50 is 6.15.

For the molecule `CO[C@@H]1CCOc2c([S@](=O)(=NC(=O)Nc3c4c(cc5c3CCC5)CCC4)NC#N)cnn2C1` (single isomer, unassigned) [Example 121], the pIC50 is 5.57.

Consider `COc1cc(C(C)C)c(NC(=O)N=S(N)(=O)c2cnn3c2OCCC3)c(C(C)C)n1` (single isomer, unassigned) [Example 103], for which the pIC50 is less than 4.70.

Turning to `CC1CCOc2c(S(N)(=O)=NC(=O)Nc3c4c(cc5c3CCC5)CCC4)cnn2C1` (single isomer, unassigned) [Example 65], the pIC50 was 6.47.

Turning to `CC1CCc2cc3c(c(NC(=O)N=S(N)(=O)c4cnn5c4OCCC5)c21)CCC3` (single isomer, unassigned) [Example 129], the pIC50 was 7.72.

Consider `COC1COc2c(S(N)(=O)=NC(=O)Nc3c4c(cc5c3C(C)CC5)CCC4)cnn2C1` (single isomer, unassigned) [Example 150], for which the pIC50 was 7.62.

Regarding `N#CNS(=O)(=NC(=O)Nc1c2c(cc3c1CCC3)CCC2)c1cnn2c1OCCC2` (single isomer, unassigned) [Example 69], the pIC50 is 7.52.

In the case of `CN(C)[C@@H]1COc2c([S@@](=O)(=NC(=O)Nc3c4c(c(F)c5c3CCC5)CCC4)NC#N)cnn2C1` [Example 104, (R,6S)—N-cyano-6-(dimethylamino)-N′-((8-fluoro-1,2,3,5,6,7-hexahydro-s-indacen-4-yl)carbamoyl)-6,7-dihydro-5H-pyrazolo[5,1-b][1,3]oxazine-3-sulfonimidamide], the pIC50 is 6.49.

As to `CNC1CCn2ncc(S(N)(=O)=NC(=O)Nc3c4c(cc5c3CCC5)CCC4)c2OC1` (single isomer, unassigned) [Example 130], the pIC50 was 4.85.

As to `CO[C@H]1CCOc2c([S@](=O)(=NC(=O)Nc3c4c(cc5c3CCC5)CCC4)NC#N)cnn2C1` (single isomer, unassigned) [Example 123], the pIC50 is 6.92.

Turning to `COc1cc(C(C)C)c(NC(=O)N=S(N)(=O)c2cnn3c2OCCC3)c(C(C)C)n1` (single isomer, unassigned) [Example 102], the pIC50 was 5.29.

`COC1COc2c(S(=O)(=NC(=O)Nc3c4c(cc5c3CCC5)CCC4)NC(C)=O)cnn2C1` (single isomer, unassigned) [Example 115]: the pIC50 was 5.60.

With `CN1CCCn2ncc(S(N)(=O)=NC(=O)Nc3c4c(cc5c3CCC5)CCC4)c21` (single isomer, unassigned) [Example 107], the pIC50 is 5.05.

With `CNC1CCOc2c(S(N)(=O)=NC(=O)Nc3c4c(cc5c3CCC5)CCC4)cnn2C1` (single isomer, unassigned) [Example 106], the negative-log IC50 (pIC50) was 6.82.

Turning to `CC1CCn2ncc(S(N)(=O)=NC(=O)Nc3c4c(cc5c3CCC5)CCC4)c2OC1` (single isomer, unassigned) [Example 75], the pIC50 was 4.82.

Regarding `NS(=O)(=NC(=O)Nc1c2c(cc3c1CCC3)CCC2)c1cnn2c1OCC2` (single isomer, unassigned) [Example 124], the pIC50 is 7.27.

Regarding `CC1CCc2cc3c(c(NC(=O)N=S(N)(=O)c4cnn5c4OCC(C)(C)C5)c21)CCC3` (single isomer, unassigned) [Example 138], the pIC50 was 6.10.

As to `COc1cc(-c2ccc(NC(=O)N=S(N)(=O)c3cnn4c3OCC(OC)C4)c3c2CCC3)ccn1` (single isomer, unassigned) [Example 152], the pIC50 is 5.39.

Consider `COc1cc(-c2cc(F)cc(C(C)C)c2NC(=O)N=S(N)(=O)c2cnn3c2OCCC3)ccn1` (single isomer, unassigned) [Example 119], for which the negative logarithm of the IC50 (pIC50) is 7.24.

With `CN1CCCn2ncc(S(N)(=O)=NC(=O)Nc3c4c(cc5c3CCC5)CCC4)c21` (single isomer, unassigned) [Example 108], the pIC50 is less than 4.70.

As to `COC1CCOc2c(S(N)(=O)=NC(=O)Nc3c4c(cc5c3CCC5)CCC4)cnn2C1` (single isomer, unassigned) [Example 88], the pIC50 is 5.11.

Take `COC1CCn2ncc(S(N)(=O)=NC(=O)Nc3c4c(cc5c3CCC5)CCC4)c2OC1` (single isomer, unassigned) [Example 93]: the pIC50 is 6.44.

On to `CC1CCc2cc3c(c(NC(=O)N=S(N)(=O)c4cnn5c4OCC(C)(C)C5)c21)CCC3` (single isomer, unassigned) [Example 137], for which the pIC50 is 7.55.

Take `NS(=O)(=NC(=O)Nc1c2c(cc3c1CCC3)CCC2)c1cnn2c1SCCC2` (single isomer, unassigned) [Example 101]: the pIC50 was less than 4.70.

Regarding `CC1CCc2cc3c(c(NC(=O)N=S(N)(=O)c4cnn5c4OCC(C)(C)C5)c21)CCC3` (single isomer, unassigned) [Example 136], the pIC50 is 5.42.

In the case of `COC1CN([C@@H]2COc3c([S@@](=O)(=NC(=O)Nc4c5c(c(F)c6c4CCC6)CCC5)NC#N)cnn3C2)C1` (stereo in doubt) [Example 63, (R,6S)—N-cyano-N′-((8-fluoro-1,2,3,5,6,7-hexahydro-s-indacen-4-yl)carbamoyl)-6-(3-methoxyazetidin-1-yl)-6,7-dihydro-5H-pyrazolo[5,1-b][1,3]oxazine-3-sulfonimidamide, ammonia], the pIC50 is 6.85.

As for `COC1CCn2ncc(S(N)(=O)=NC(=O)Nc3c4c(cc5c3CCC5)CCC4)c2OC1` (single isomer, unassigned) [Example 92], the pIC50 was 5.09.

For the molecule `NS(=O)(=NC(=O)Nc1c2c(cc3c1CCC3)CCC2)c1cnn2c1SCCC2` (single isomer, unassigned) [Example 100], the pIC50 is 5.57.

Consider `NS(=O)(=NC(=O)Nc1c2c(cc3c1CCC3)CCC2)c1cnn2c1CCOCC2` (single isomer, unassigned) [Example 118], for which the pIC50 was less than 4.70.

As for `CC1CCn2ncc(S(N)(=O)=NC(=O)Nc3c4c(cc5c3CCC5)CCC4)c2OC1` (single isomer, unassigned) [Example 79], the pIC50 is 6.00.

Turning to `CC1CCc2cc3c(c(NC(=O)N=S(N)(=O)c4cnn5c4OCC5)c21)CCC3` (single isomer, unassigned) [Example 143], the pIC50 was 5.92.

As for `CNCCOc1cc(C(C)C)c(NC(=O)N=S(N)(=O)c2cnn3c2OCCC3)c(C(C)C)n1` (single isomer, unassigned) [Example 70], the pIC50 is less than 4.70.

Turning to `CC1(C)Cn2ncc(S(N)(=O)=NC(=O)Nc3c4c(cc5c3CCC5)CCC4)c2O1` (single isomer, unassigned) [Example 140], the pIC50 was 6.25.
